Measured values taken from patent US20170334899A1, “AMINO-SUBSTITUTED ISOTHIAZOLES” (Bayer Pharma Aktiengesellschaft, priority 2014, published 2017).
pIC50: −log10 of the molar value.

Each molecule was assayed on human cervical tumor cell line HeLa (ATCC CCL-2) (assay: SAC-Formation - Paclitaxel-Induced Assay). Details: Homo sapiens, HeLa, 24 h, HeLa cells, paclitaxel 0.05 μM, test range 0.005 μM-20 μM, read-out: IC50 [mol/l] SAC-Formation - Paclitaxel-Induced Assay.
Format: cell-based
Summary of the method: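 HeLa cells incubated overnight at 37° C, then given paclitaxel (0.05 μM final) plus test compound (0.005–20 μM, 0.5% DMSO) together for 24 h at 37° C. Fixed cells stained for phospho-histone H3 Ser10 (mitotic cells) and Hoechst 33342 (cell count); imaging-derived mitotic index fitted by four-parameter Hill equation.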
Cc1nsc(Nc2cncc(C(F)(F)F)n2)c1C(=O)Nc1ccc(OC2CCN(C(C)C)CC2)nc1 [Example 218, N-{6-[(1-isopropylpiperidin-4-yl)oxy]pyridin-3-yl}-3-methyl-5-{[6-(trifluoromethyl)pyrazin-2-yl]amino}-1,2-thiazole-4-carboxamide] showed a pIC50 of 5.41.
Molecule CNS(=O)(=O)c1ccc(NC(=O)c2c(C)nsc2Nc2cncc(C(F)(F)F)n2)cc1 [Example 211, 3-methyl-N-[4-(methylsulfamoyl)phenyl]-5-{[6-(trifluoromethyl)pyrazin-2-yl]amino}-1,2-thiazole-4-carboxamide] has a pIC50 of 7.33.
With Cc1nsc(Nc2cnc3ccccc3n2)c1C(=O)Nc1ccc(OC2CCN(C(=O)OC(C)(C)C)CC2)nc1 [Example 18, tert-Butyl 4-{[5-({[3-methyl-5-(quinoxalin-2-ylamino)-1,2-thiazol-4-yl]carbonyl}-amino)pyridin-2-yl]oxy}piperidine-1-carboxylate] the pIC50 was 7.23.
Cc1nsc(Nc2cncc(C(F)(F)F)n2)c1C(=O)Nc1ccc(OCC2CCN(C(=O)OC(C)(C)C)CC2)nc1 [Example 226, tert-butyl 4-{[(5-{[(3-methyl-5-{[6-(trifluoromethyl)pyrazin-2-yl]amino}-1,2-thiazol-4-yl)carbonyl]amino}pyridin-2-yl)oxy]methyl}piperidine-1-carboxylate] was tested, and the pIC50 was 6.68.
Cc1nsc(Nc2cc(C#N)ccn2)c1C(=O)Nc1cccc(NC(=O)C(C)(C)C)c1 [Example 183, 5-[(4-cyanopyridin-2-yl)amino]-N-{3-[(2,2-dimethylpropanoyl)amino]phenyl}-3-methyl-1,2-thiazole-4-carboxamide] showed a pIC50 of 5.31.
Molecule Cc1cc(C)n(-c2ccccc2NC(=O)c2c(C)nsc2Nc2cnc3ccccc3n2)n1 [Example 243, N-[2-(3,5-dimethyl-1H-pyrazol-1-yl)phenyl]-3-methyl-5-(quinoxalin-2-ylamino)-1,2-thiazole-4-carboxamide] has a pIC50 of 5.19.
Molecule CC(=O)Nc1cc(NC(=O)c2c(C)nsc2Nc2cnccn2)ccc1F [Example 205, N-(3-acetamido-4-fluorophenyl)-3-methyl-5-(pyrazin-2-ylamino)-1,2-thiazole-4-carboxamide] has a pIC50 of 4.70.
Molecule Cc1nsc(Nc2cncc(C(F)(F)F)n2)c1C(=O)Nc1ccc(OC2CCN(CC(F)F)CC2)c(F)c1 [Example 224, N-(4-{[1-(2,2-difluoroethyl)piperidin-4-yl]oxy}-3-fluorophenyl)-3-methyl-5-{[6-(trifluoromethyl)pyrazin-2-yl]amino}-1,2-thiazole-4-carboxamide] has a pIC50 of 6.74.
Molecule CC(=O)Nc1cc(NC(=O)c2c(C)nsc2Nc2cnc(C(F)(F)F)cn2)ccc1F [Example 206, N-(3-acetamido-4-fluorophenyl)-3-methyl-5-{[5-(trifluoromethyl)pyrazin-2-yl]amino}-1,2-thiazole-4-carboxamide] has a pIC50 of 7.12.
Cc1nsc(Nc2cncc(C(F)(F)F)n2)c1C(=O)Nc1ccc(OCCN)nc1 [Example 196, N-[6-(2-aminoethoxy)pyridin-3-yl]-3-methyl-5-{[6-(trifluoromethyl)pyrazin-2-yl]amino}-1,2-thiazole-4-carboxamide] showed a pIC50 of 5.89.
Molecule Cc1nsc(Nc2cncc(C(F)(F)F)n2)c1C(=O)Nc1ccc(C(=O)NC2CCN(CC(F)F)CC2)cc1 [Example 225, N-N-(4-{[1-(2,2-difluoroethyl)piperidin-4-yl]carbamoyl}phenyl)-3-methyl-5-{[6-(trifluoromethyl)pyrazin-2-yl]amino}-1,2-thiazole-4-carboxamide] has a pIC50 of 6.24.
Cc1nsc(Nc2cncc(C(F)(F)F)n2)c1C(=O)Nc1cccc(S(C)(=O)=O)c1 [Example 194, 3-methyl-N-[3-(methylsulfonyl)phenyl]-5-{[6-(trifluoromethyl)pyrazin-2-yl]amino}-1,2-thiazole-4-carboxamide] gave a pIC50 of 6.54.
In the case of Cc1nsc(Nc2cnc3ccccc3n2)c1C(=O)Nc1ccc(C(=O)O)cc1 [Example 187, 4-({[3-methyl-5-(quinoxalin-2-ylamino)-1,2-thiazol-4-yl]carbonyl}amino)benzoic acid], the pIC50 was 5.85.
Cc1nsc(Nc2cc(C#N)ccn2)c1C(=O)Nc1ccc(NC2CCCNC2)nc1 (centres unmarked) [Example 242, 5-[(4-cyanopyridin-2-yl)amino]-3-methyl-N-[6-(piperidin-3-ylamino)pyridin-3-yl]-1,2-thiazole-4-carboxamide] showed a pIC50 of 5.48.
Cc1nsc(Nc2ccc(C#N)cn2)c1C(=O)Nc1ccc(S(C)(=O)=O)cc1 [Example 246, 5-[(5-cyanopyridin-2-yl)amino]-3-methyl-N-[4-(methylsulfonyl)phenyl]-1,2-thiazole-4-carboxamide] was tested, and the pIC50 was 7.11.
Cc1nsc(Nc2cncc(C(F)(F)F)n2)c1C(=O)Nc1ccc(OCCNC(=O)OC(C)(C)C)nc1 [Example 191, tert-butyl {2-[(5-{[(3-methyl-5-{[6-(trifluoromethyl)pyrazin-2-yl]amino}-1,2-thiazol-4-yl)carbonyl]amino}pyridin-2-yl)oxy]ethyl}carbamate] was tested, and the pIC50 was 7.43.
In the case of Cc1nsc(Nc2cc(C#N)ccn2)c1C(=O)Nc1ccc(OCCC(=O)OC(C)(C)C)nc1 [Example 200, tert-butyl 3-({5-[({5-[(4-cyanopyridin-2-yl)amino]-3-methyl-1,2-thiazol-4-yl}carbonyl)amino]pyridin-2-yl}oxy)propanoate], the pIC50 was 5.92.
With Cc1nsc(Nc2cnc3ccccc3n2)c1C(=O)Nc1ccc(NC2CCN(C(=O)OC(C)(C)C)CC2)nc1 [Example 234, tert-butyl 4-{[5-({[3-methyl-5-(quinoxalin-2-ylamino)-1,2-thiazol-4-yl]carbonyl}amino)pyridin-2-yl]amino}piperidine-1-carboxylate] the pIC50 was 5.00.
In the case of Cc1nsc(Nc2cnc(C(F)(F)F)cn2)c1C(=O)Nc1ccc(C(=O)NCCN2CCCC(F)C2)cc1 (centres unmarked) [Example 213, N-(4-{[2-(3-fluoropiperidin-1-yl)ethyl]carbamoyl}phenyl)-3-methyl-5-{[5-(trifluoromethyl)pyrazin-2-yl]amino}-1,2-thiazole-4-carboxamide], the pIC50 was 5.54.
Work on Cc1nsc(Nc2cc(C#N)ccn2)c1C(=O)Nc1ccc(NC(=O)OC(C)(C)C)cc1 [Example 177, tert-butyl {4-[({5-[(4-cyanopyridin-2-yl)amino]-3-methyl-1,2-thiazol-4-yl}carbonyl)amino]phenyl}carbamate] yielded a pIC50 of 4.96.
Molecule Cc1nsc(Nc2cc(C#N)ccn2)c1C(=O)Nc1ccc(C(=O)OC(C)(C)C)cc1 [Example 182, tert-butyl 4-[({5-[(4-cyanopyridin-2-yl)amino]-3-methyl-1,2-thiazol-4-yl}carbonyl)amino]benzoate] has a pIC50 of 7.72.
Cc1nsc(Nc2cnc3ccccc3n2)c1C(=O)Nc1ccc(F)c(C(N)=O)c1 [Example 202, N-(3-carbamoyl-4-fluorophenyl)-3-methyl-5-(quinoxalin-2-ylamino)-1,2-thiazole-4-carboxamide] gave a pIC50 of 6.89.
With CCN(CC)CCNC(=O)c1cccc(NC(=O)c2c(C)nsc2Nc2cnccn2)c1 [Example 247, N-(3-{[2-(diethylamino)ethyl]carbamoyl}phenyl)-3-methyl-5-(pyrazin-2-ylamino)-1,2-thiazole-4-carboxamide] the pIC50 was 6.85.
For Cc1nsc(Nc2ccc(C#N)cn2)c1C(=O)Nc1cccc(NC(=O)OC(C)(C)C)c1 [Example 179, tert-butyl {3-[({5-[(5-cyanopyridin-2-yl)amino]-3-methyl-1,2-thiazol-4-yl}carbonyl)amino]phenyl}carbamate], the pIC50 was 5.66.
Molecule Cc1nsc(Nc2cnc3ccccc3n2)c1C(=O)Nc1ccc(C(=O)OC(C)(C)C)cc1 [Example 181, tert-butyl 4-({[3-methyl-5-(quinoxalin-2-ylamino)-1,2-thiazol-4-yl]carbonyl}amino)benzoate] has a pIC50 of 7.00.
With Cc1nsc(Nc2cnc3ccccc3n2)c1C(=O)Nc1ccc(NCCNC(=O)OC(C)(C)C)nc1 [Example 244, tert-butyl (2-{[5-({[3-methyl-5-(quinoxalin-2-ylamino)-1,2-thiazol-4-yl]carbonyl}amino)pyridin-2-yl]amino}ethyl)carbamate] the pIC50 was 5.41.
Work on Cc1nsc(Nc2cnc(C(F)(F)F)cn2)c1C(=O)Nc1ccc(OC2CCN(C(=O)OC(C)(C)C)CC2)c(F)c1 [Example 217, tert-butyl 4-(2-fluoro-4-{[(3-methyl-5-{[5-(trifluoromethyl)pyrazin-2-yl]amino}-1,2-thiazol-4-yl)carbonyl]amino}phenoxy)piperidine-1-carboxylate] yielded a pIC50 of 6.39.
CC(=O)N1CCC(Oc2ccc(NC(=O)c3c(C)nsc3Nc3cncc(C(F)(F)F)n3)cn2)CC1 [Example 17, N-{6-[(1-Acetylpiperidin-4-yl)oxy]pyridin-3-yl}-3-methyl-5-{[6-(trifluoromethyl)-pyrazin-2-yl]amino}-1,2-thiazole-4-carboxamide] was tested, and the pIC50 was 6.52.
CCN(CC)CCNC(=O)c1cccc(NC(=O)c2c(C)nsc2Nc2cc(C#N)ccn2)c1 [Example 174, 5-[(4-cyanopyridin-2-yl)amino]-N-(3-{[2-(diethylamino)ethyl]carbamoyl}phenyl)-3-methyl-1,2-thiazole-4-carboxamide] was tested, and the pIC50 was 6.26.
For Cc1nsc(Nc2cnc(C(F)(F)F)cn2)c1C(=O)Nc1ccc(OCC2CCCN(C(=O)OC(C)(C)C)C2)nc1 (centres unmarked) [Example 228, tert-butyl 3-{[(5-{[(3-methyl-5-{[5-(trifluoromethyl)pyrazin-2-yl]amino}-1,2-thiazol-4-yl)carbonyl]amino}pyridin-2-yl)oxy]methyl}piperidine-1-carboxylate], the pIC50 was 7.32.
In the case of Cc1nsc(Nc2cnc3ccccc3n2)c1C(=O)Nc1ccc(OC2CCN(CC(F)F)CC2)nc1 [Example 20, N-(6-{[1-(2,2-difluoroethyl)piperidin-4-yl]oxy}pyridin-3-yl)-3-methyl-5-(quinoxalin-2-ylamino)-1,2-thiazole-4-carboxamide], the pIC50 was 6.74.
For Cc1nsc(Nc2cnc3ccccc3n2)c1C(=O)Nc1ccc(NC(=O)C(C)(C)C)cc1 [Example 185, N-{4-[(2,2-dimethylpropanoyl)amino]phenyl}-3-methyl-5-(quinoxalin-2-ylamino)-1,2-thiazole-4-carboxamide], the pIC50 was 5.33.
